Measured values: paper PMC3526597, “High-Glucose-Induced Endothelial Cell Injury Is Inhibited by a Peptide Derived from Human Apolipoprotein E” (PLoS ONE, 2012)
Peptide text beside a SMILES is read from it.

Experiment: Corneal penetration assay (aqueous humor level after eye drop)
Type: in vivo, mouse
Details: for Total / Measure concentration: mouse aqueous humor, UPLC-MS; for Measure concentration: sample mixed with 1 ml 0.1% formic acid
Description: The apoEdp peptide (LRKLRKRLLLRKLRKRLL) is rich in cationic amino acids lysine and arginine. ApoEdp is more cationic than HIV-1 Tat cell penetrating peptide (Table 1). We hypothesized that apoEdp could act as a corneal penetrating peptide.
Mouse eyes were treated with 1% apoEdp drops. At 0, 1, 2, 3, hours post-treatment, mice were sacrificed and eyes were enucleated. The globes were washed with sterile PBS three times and aqueous humor was aspirated using a 27-gauge needle and 1 mL syringe. The mouse aqueous humor samples were mixed with 1 ml of 0.1% formic acid solution and allowed to stand for 5 minutes. The samples were filtered with a 0.2-micron filter and analyzed using a Waters Acquity UPLC system (Milford, MA) with mass spectrophotometrical detection. […] These peaks included 483.9 m/z 604.4 m/z, and 805.6 m/z. We used the […] peak for the analysis because it was the strongest. For the UPLC analysis, we used a BEH300 C4 column 2.1 mm×100 mm×1.7 µm. A 2 component mobile phase was used with component 1:0.1% formic Acid, and Component 2: Acetonitrile with 0.1% formic acid. The flow rate was 0.2 ml/min and gradient elution was used with a linear gradient.

[1] = 2 hours after 1% apoEdp eye drop, left eye
[2] = 2 hours after 1% apoEdp eye drop, right eye
[3] = 3 hours after 1% apoEdp eye drop, left eye
[4] = 3 hours after 1% apoEdp eye drop, right eye

## CC(=O)N[C@@H](CC(C)C)C(=O)N[C@@H](CCCNC(=N)N)C(=O)N[C@@H](CCCCN)C(=O)N[C@@H](CC(C)C)C(=O)N[C@@H](CCCNC(=N)N)C(=O)N[C@@H](CCCCN)C(=O)N[C@@H](CCCNC(=N)N)C(=O)N[C@@H](CC(C)C)C(=O)N[C@@H](CC(C)C)C(=O)N[C@@H](CC(C)C)C(=O)N[C@@H](CCCNC(=N)N)C(=O)N[C@@H](CCCCN)C(=O)N[C@@H](CC(C)C)C(=O)N[C@@H](CCCNC(=N)N)C(=O)N[C@@H](CCCCN)C(=O)N[C@@H](CCCNC(=N)N)C(=O)N[C@@H](CC(C)C)C(=O)N[C@@H](CC(C)C)C(N)=O [apoEdp] (Ac-LRKLRKRLLLRKLRKRLL-NH2)
Applied topically (1% eye drop), mouse eyes
  time to reach the anterior chamber of the eye: ≤ 3 h
[1]
  Total: 3.89 ng
  Measure concentration: 0.004 µg/mL
[2]
  Total: 5.9 ng
  Measure concentration: 0.006 µg/mL
[3]
  Total: 58.08 ng
  Measure concentration: 0.058 µg/mL
[4]
  Total: 36.3 ng
  Measure concentration: 0.036 µg/mL
